Experimental findings from US7232831B2, “Tetrahydro-β-carboline compounds and use thereof” (MediQuest Therapeutics, Inc., priority 2004, dated 2007) are described below.

For this test, the system named is rats. The test is described as follows: Forced Swimming Test (Depression Test Model). The test is classed as in vivo. The settings on record: delivered orally before swim test, all three doses 0.3, 3 and 30 mg/kg, observed for 6 minutes. The text has this: Forced Swimming Test (Depression Test Model)—Total immobility time of rats can be assessed during a forced swimming test Porsolt, R. D., Anton, G., Blavet, N., Jalfre, M. Behavioral despair in rats, a new model sensitive to antidepressant treatments. Eur. J Pharmacol. 1978, 47, 379-391. A shortened immobility period reflects anti-depressant-like effects of a test compound. MQT compounds were delivered orally to rats before the swim test.

Each structure is given as a SMILES string.

For the compound `NCCCNCC1CCCN(CC2Cc3c([nH]c4ccccc34)CN2)C1` (centres unmarked) [MQT 2], the “Total immobility time during forced swimming test” value is on record as “reduction in immobility”.

For `NCCCNC(=O)C1CCCN(C(=O)C2Cc3c([nH]c4ccccc34)CN2)C1` (centres unmarked) [MQT 1], the “Total immobility time during forced swimming test” value was “reduction in immobility”.
